Test results: US20250339426A1, “GCN2 MODULATOR FOR TREATING CANCER” (HIBERCELL, INC., priority 2022, published 2025)

What was measured:
[1] = tested on: HIF1α; assay: IHC of patient tumor biopsies, Phase 1a/b study; format: in vivo, human; settings: colorectal and head and neck cancer patients, 10 mg and 20 mg QD, cycle 3 vs screening
Protocol: A first-in-human, multicenter, open-label, Phase 1a/b dose-escalation and dose-expansion study to establish the maximum tolerated dose (MTD), recommended phase II dose (RP2D), and evaluate the safety and tolerability of once daily (QD) oral dosing of HC-7366 potassium salt monohydrate in a dose-escalating fashion in subjects with advanced solid tumors was conducted. Up to 36 subjects were enrolled into the Phase 1a dose-escalation part of the study. Approximately 50% of all subjects enrolled in this study were subjects with squamous cell carcinoma of the head and neck (SCCHN), colorectal cancer (CRC), non-small cell lung cancer (NSCLC), and transitional cell carcinoma of the bladder (TCC). […] The study was conducted in the United States at approximately 3 to 5 sites. This Phase 1a/b study followed a traditional 3+3 design. The starting dose level was 10 mg QD, escalating to 20, 40, 75, 125, and 150 mg QD as safety allowed. All doses were administered in the fasting state with water at least 1 hour before food or at least 2 hours after food. […]
Tumor biopsies collected from colorectal cancer and head and neck cancer study patients at the time of screening and at cycle 3 were analyzed for HIF1α expression by IHC. […]

[2] = tested on: newly synthesized proteins; assay: Puromycin labeling of newly synthesized proteins; format: cell-based; settings: 100 nM
[3] = tested on: ASNS, PSAT1, PHGDH, PUMA, S100A8/A9 in KG-1 tumors; assay: Tumor IHC, KG-1 tumors; format: in vivo, NOD SCID mice
Protocol: Immunohistochemical analysis was carried out on tumors that were collected at the end of the study described in Example 6. Formalin-fixed paraffin-embedded samples were sectioned at 5 μm thickness and mounted on Superfrost Plus microscope slides (Fisher Scientific). All immunohistochemical (IHC) staining was performed on Bond Rx auto-stainer (Leica Biosystems) using the conventional TSA-amplified detection system. Primary antibodies used were as follows: a-ASNS (Cell Signaling Technology #92479), a-PUMA (Cell Signaling Technology #98672), a-PSAT1 (Proteintech #10501-1-AP), a-PHGDH (Proteintech #14719-1-AP), HIF-1a-Novus Biologicals NB 100-479, HIF-2a-Novus Biologicals NB100-122SS, and GLUT-1-EMB Biosciences 07-1401. TSA-conjugated Alexa488, Alexa 568 and Alexa647 fluorophores from Invitrogen (#B40953, #B40956, and #B40958) were used at 1:500 dilution. Slides were counterstained with DAPI and cover slipped using Mowiol anti-fade mounting media (Sigma #D2522).
Slides were imaged with Aperio Versa 200 (Leica Biosystems) whole-slide scanner using 10×/0.32NA objective, and the data were analyzed using custom-written macros in ImageJ/FIJI (NIH). Briefly, 150 μm of outer edges of the tumor sections and necrotic regions (determined by lack of 4′,6-diamidino-2-phenylindole (DAPI) signal or presence of condensed DNA) were eliminated from the analysis. Gaussian-blurred DAPI channel was used to measure the area of the tumor tissue. Scans of immune-staining were processed to remove background, then total intensity value above appropriate threshold levels was measured and normalized to tissue area. All graphing and statistics (one-way ANOVA and pair-wise comparisons) were performed using Prism GraphPad.
Slides were deparaffinized, rehydrated and heat mediated antigen retrieval was conducted with AR6 buffer (Akoya). Slides were blocked with Roche diagnostics antibody diluent (Fisher) and stained with primary antibodies for 1 hr at 110 rpm. After washing, horseradish peroxidase (HRP)-conjugated secondary antibodies were added for 10 mins at 110 rpm. After washing, OPAL detection dye (Akoya) was added for a static 10 min incubation. Antigen retrieval was performed post OPAL staining, followed by DAPI staining and slide covering. Multispectral images were captured on the Polaris imaging system (Akoya) and spectral unmixing, cell segmentation and phenotyping was performed using Inform Tissue Finder software (Akoya). Imaging data was converted into .csv files and imported into Flowjo for analysis of S100A8/A9 percent positive cells. Primary antibodies used were rabbit anti-human/mouse S100A8/A9 (Clone RM1038, Abcam ab288715, paired with Opal 570).

[4] = tested on: MOLM-16 xenograft tumors; assay: Metabolomic analysis of MOLM-16 xenograft tumors; format: in vivo, mice; settings: four days
Protocol: MOLM-16 xenograft tumors were treated with Vehicle or HC-7366 (0.3, 1, 3, 10 or 30 mg/kg) for four days, and snap frozen tumors were collected for metabolomic analysis (n=12). Metabolic analysis was performed at Metabolon on the LC/MS/MS and Polar LC platforms. Data was normalized to Vehicle group and Welch's two-sample t-test was performed for statistical analysis. Heat maps show metabolite levels normalized to vehicle control (FIGS. 90, 94, 102, and 107).

[5] = end of study (day 27), highest induction at 1 and 3 mg/kg

## CNC(=O)c1ncn2cc(-c3c(F)ccc(NS(=O)(=O)c4cc(Cl)cnc4OC)c3F)ncc12 [HC-7366, 6-(3-((5-chloro-2-methoxypyridine)-3-sulfonamido)-2,6-difluorophenyl)-N-methylimidazo[1,5-a]pyrazine-1-carboxamide]
[1]
  HIF1α expression in tumor biopsies: Profound inhibition
[2]
  puromycin labeling of newly synthesized proteins: potently reduced
[3]; 1 and 3 mg/kg doses, day 27
  protein levels of S100A8/A9: potently reduced
[3]; day 27
  PUMA levels: not changed
[3]; [5]
  ASNS by IHC: potently induced
  PHGDH by IHC: potently induced
  PSAT1 by IHC: potently induced
[4]; 0.3-30 mg/kg
  aspartate and cysteine levels: decreased
  glutathione levels (GSH and GSSG): significantly reduced
  levels of most amino acids: significantly elevated
  metabolites involved in pyrimidine synthesis: significantly reduced
  γ-glutamyl-amino acids: enhanced
[4]; all doses
  aspartate metabolism and polyamine-related metabolites (putrescine, spermine, MTA): significantly reduced
